# Measurements as given in patent US7968591B2, “1,3-disubstituted 4-methyl-1H-pyrrole-2-carboxamides and their use in medicaments” (Gruenenthal GmbH, priority 2006, dated 2011).
# Test system: batrachotoxin (BTX) binding site of the sodium channel
# Experiment: Affinity for the batrachotoxin (BTX) binding site of the sodium channel
# Conditions: rat cerebrocortex synaptosomes, [3H]-Batrachotoxinin A20α benzoate 10 nM
row,Compound,BTX (Na+ channel) (% inhibition at 10 μM)
1,"Cc1cn(Cc2ccc(F)cc2)c(C(=O)NCCN2CCOCC2)c1-c1ccco1 [Example 50, 1-(4-fluorobenzyl)-3-furan-2-yl-4-methyl-1H-pyrrole-2-carboxylic acid (2-morpholin-4-ylethyl)-amide]",77%
2,"Cc1cn(Cc2ccccc2)c(C(=O)NCCc2ccc(F)cc2)c1-c1ccc(Cl)cc1 [Example 51, 1-benzyl-3-(4-chlorophenyl)-4-methyl-1H-pyrrole-2-carboxylic acid [2-(4-fluorophenyl)-ethyl]-amide]",43%
3,"COc1ccc(-c2c(C)cn(C)c2C(=O)N2CCN(c3cc(C)ccc3C)CC2)cc1 [Example 52, [4-(2,5-dimethylphenyl)-piperazin-1-yl]-[3-(4-methoxyphenyl)-1,4-dimethyl-1H-pyrrol-2-yl]-methanone]",76%
4,"COc1ccc(-c2c(C)cn(C)c2C(=O)NCCCn2ccnc2)cc1 [Example 53, 3-(4-methoxyphenyl)-1,4-dimethyl-1H-pyrrole-2-carboxylic acid (3-imidazol-1-ylpropyl)-amide]",44%
5,"COc1ccc(-c2c(C)cn(Cc3ccc(F)cc3)c2C(=O)NCCc2cccc(C(F)(F)F)c2)cc1 [Example 54, 1-(4-fluorobenzyl)-3-(4-methoxyphenyl)-4-methyl-1H-pyrrole-2-carboxylic acid [2-(3-trifluoromethylphenyl)-ethyl]-amide]",42%
6,"Cc1cnc(C(=O)N2CCN(C(=O)c3c(-c4ccc(Cl)cc4)c(C)cn3Cc3ccccc3F)CC2)cn1 [Example 55, [3-(4-chlorophenyl)-1-(2-fluorobenzyl)-4-methyl-1H-pyrrol-2-yl]-[4-(5-methylpyrazin-2-carbonyl)-piperazin-1-yl]-methanone]",44%
7,"Cc1cn(C)c(C(=O)N2CCN(c3ccncc3)CC2)c1-c1ccc(Cl)cc1 [Example 57, [3-(4-chlorophenyl)-1,4-dimethyl-1H-pyrrol-2-yl]-(4-pyridin-4-ylpiperazin-1-yl)-methanone]",76%
8,"Cc1cn(Cc2ccccc2F)c(C(=O)NCCCn2ccnc2)c1-c1ccc(Cl)cc1 [Example 58, 3-(4-chlorophenyl)-1-(2-fluorobenzyl)-4-methyl-1H-pyrrole-2-carboxylic acid (3-imidazol-1-ylpropyl)-amide]",93%
9,"COc1ccc(CN2CCN(C(=O)c3c(-c4ccccc4)c(C)cn3C)CC2)cc1F [Example 59, (1,4-dimethyl-3-phenyl-1H-pyrrol-2-yl)-[4-(3-fluoro-4-methoxybenzyl)-piperazin-1-yl]-methanone]",75%
10,"Cc1cn(C)c(C(=O)N2CCN(C3CCCCCC3)CC2)c1-c1ccco1 [Example 61, (4-cycloheptylpiperazin-1-yl)-(3-furan-2-yl-1,4-dimethyl-1H-pyrrol-2-yl)-methanone]",64%
11,"COc1ccc(OCCNC(=O)c2c(-c3ccccc3)c(C)cn2Cc2ccccc2)cc1 [Example 62, 1-benzyl-4-methyl-3-phenyl-1H-pyrrole-2-carboxylic acid [2-(4-methoxyphenoxy)-ethyl]-amide]",50%
12,"Cc1cn(Cc2ccc(F)cc2)c(C(=O)NCCCN(C)C)c1-c1ccco1 [Example 63, 1-(4-fluorobenzyl)-3-furan-2-yl-4-methyl-1H-pyrrole-2-carboxylic acid (3-dimethylamino-propyl)-amide]",75%
13,"COc1ccc(-c2c(C)cn(Cc3ccc(F)cc3)c2C(=O)N2CCCC2CN2CCCC2)cc1 (stereo not drawn) [Example 64, [1-(4-fluorobenzyl)-3-(4-methoxyphenyl)-4-methyl-1H-pyrrol-2-yl]-(2-pyrrolidin-1-ylmethylpyrrolidin-1-yl)-methanone]",96%
14,"CCN(CC)CCCNC(=O)c1c(-c2ccc(Cl)cc2)c(C)cn1CC(C)C [Example 65, 3-(4-chlorophenyl)-1-isobutyl-4-methyl-1H-pyrrole-2-carboxylic acid (3-diethylamino-propyl)-amide]",88%
15,"COc1ccc(F)c(CN2CCN(C(=O)c3c(-c4ccc(Cl)cc4)c(C)cn3C)CC2)c1 [Example 66, [3-(4-chlorophenyl)-1,4-dimethyl-1H-pyrrol-2-yl]-[4-(2-fluoro-5-methoxybenzyl)-piperazin-1-yl]-methanone]",73%
16,"CCCCn1cc(C)c(-c2ccc(C)cc2)c1C(=O)N1CCN(Cc2cc(OC)ccc2OC)CC1 [Example 68, (1-butyl-4-methyl-3-p-tolyl-1H-pyrrol-2-yl)-[4-(2,5-dimethoxybenzyl)-piperazin-1-yl]-methanone]",84%
17,"CCN(CC)CCN1CCN(C(=O)c2c(-c3ccc(C)cc3)c(C)cn2Cc2ccc(C)cc2)CC1 [Example 69, [4-(2-diethylamino-ethyl)-piperazin-1-yl]-[4-methyl-1-(4-methylbenzyl)-3-p-tolyl-1H-pyrrol-2-yl]-methanone]",91%
18,"COc1ccc(-c2c(C)cn(C)c2C(=O)N2CCN(c3cccc(Cl)c3)CC2)cc1 [Example 70, [4-(3-chlorophenyl)-piperazin-1-yl]-[3-(4-methoxyphenyl)-1,4-dimethyl-1H-pyrrol-2-yl]-methanone]",59%
19,"Cc1cn(Cc2ccccc2Br)c(C(=O)N2CCN(C(C)C)CC2)c1-c1ccc(Cl)cc1 [Example 71, [1-(2-bromobenzyl)-3-(4-chlorophenyl)-4-methyl-1H-pyrrol-2-yl]-(4-isopropylpiperazin-1-yl)-methanone]",83%
20,"COc1ccc(-c2c(C)cn(Cc3ccc(F)cc3)c2C(=O)N2CCN(CCN(C)C)CC2)cc1 [Example 72, [4-(2-dimethylamino-ethyl)-piperazin-1-yl]-[1-(4-fluorobenzyl)-3-(4-methoxyphenyl)-4-methyl-1H-pyrrol-2-yl]-methanone]",81%
21,"COc1ccc(CNC(=O)c2c(-c3ccc(Cl)cc3)c(C)cn2Cc2ccccc2F)c(OC)c1 [Example 73, 3-(4-chlorophenyl)-1-(2-fluorobenzyl)-4-methyl-1H-pyrrole-2-carboxylic acid 2,4-dimethoxybenzylamide]",49%
22,"Cc1ccc(-c2c(C)cn(Cc3ccccc3)c2C(=O)NCCN2CCCC2)cc1 [Example 74, 1-benzyl-4-methyl-3-p-tolyl-1H-pyrrole-2-carboxylic acid (2-pyrrolidin-1-ylethyl)-amide]",101%
23,"COc1ccc(CN2CCN(C(=O)c3c(-c4ccco4)c(C)cn3Cc3ccc(F)cc3)CC2)cc1F [Example 75, [1-(4-fluorobenzyl)-3-furan-2-yl-4-methyl-1H-pyrrol-2-yl]-[4-(3-fluoro-4-methoxybenzyl)-piperazin-1-yl]-methanone]",89%
24,"COc1ccc(-c2c(C)cn(C)c2C(=O)NCc2ccc(OC)cc2OC)cc1 [Example 76, 3-(4-methoxyphenyl)-1,4-dimethyl-1H-pyrrole-2-carboxylic acid 2,4-dimethoxybenzylamide]",41%
25,"Cc1cn(Cc2ccccc2)c(C(=O)NCCN2CCCC2)c1-c1ccccc1 [Example 77, 1-benzyl-4-methyl-3-phenyl-1H-pyrrole-2-carboxylic acid (2-pyrrolidin-1-ylethyl)-amide]",91%
26,"Cc1cn(C)c(C(=O)NCCCN2CCCCC2C)c1-c1ccc(Cl)cc1 (stereo not drawn) [Example 78, 3-(4-chlorophenyl)-1,4-dimethyl-1H-pyrrole-2-carboxylic acid [3-(2-methylpiperidin-1-yl)-propyl]-amide]",86%
27,"Cc1cn(Cc2ccccc2)c(C(=O)NC(C)c2ccc3ccccc3c2)c1-c1ccco1 (stereo not drawn) [Example 81, 1-benzyl-3-furan-2-yl-4-methyl-1H-pyrrole-2-carboxylic acid (1-naphthalen-2-ylethyl)-amide]",35%
